{
  "source": "patent US10987317B2",
  "about": "“Inhibition of glutaminase C” (Cornell University, priority 2009, dated 2021)",
  "key": {"MDA-MB231 cells": {"system": "MDA-MB231 cells", "experiment": "Breast cancer cell soft agar colony formation and growth", "assay_type": "cell-based, human", "conditions": "10 μM", "description": "FIGS. 2A-G illustrate effects of 968 on the transforming activity of constitutively active Rho GTPases and human breast cancer cells. […] Cells are scored after 14 days and plotted as the percentage of the total number of colonies greater than […] in diameter. Data represent the average of 3 experiments (±s.d.). […] Data represent the average of 3 experiments (±s.d.). […] Data represent the average of 3 experiments (±s.d.). […] After 24 hours at 37° C. the migratory cells are fixed, stained with GIEMSA, and counted. Data represent the average of 3 experiments (±s.d.). […] Data represent the average of 3 experiments (±s.d.). […] Data represent the average of 3 experiments (±s.d.). […] Data represent the average of 3 experiments (±s.d.)."}, "[1]": {"target": "T1, E. coli-expressed mouse ortholog of human GAC (Mus musculus, UniProt D3Z7P3)", "T1 construct": "A plasmid encoding mouse GAC (residues 128-603) was cloned into the pET28a vector; His-tag (N, cleaved yes); made in house; host or cells: E. coli (pET28a)", "T1 sequence (D3Z7P3 128-603 isoform D3Z7P3-2)": "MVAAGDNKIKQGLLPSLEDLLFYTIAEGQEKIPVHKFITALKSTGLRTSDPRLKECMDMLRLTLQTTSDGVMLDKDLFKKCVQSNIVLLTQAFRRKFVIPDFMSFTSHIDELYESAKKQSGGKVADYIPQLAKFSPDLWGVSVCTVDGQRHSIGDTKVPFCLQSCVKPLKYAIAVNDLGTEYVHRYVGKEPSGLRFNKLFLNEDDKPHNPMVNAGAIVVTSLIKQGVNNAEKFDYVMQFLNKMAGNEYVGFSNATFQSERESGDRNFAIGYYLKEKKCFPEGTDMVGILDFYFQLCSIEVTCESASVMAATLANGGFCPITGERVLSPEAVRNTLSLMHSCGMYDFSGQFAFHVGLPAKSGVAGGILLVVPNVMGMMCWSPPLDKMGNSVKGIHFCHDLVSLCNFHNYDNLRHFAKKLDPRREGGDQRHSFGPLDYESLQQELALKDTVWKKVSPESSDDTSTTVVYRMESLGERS", "experiment": "Recombinant glutaminase activity assay", "assay_type": "biochemical", "description": "100%=620 moles of glutamine hydrolyzed per minute per mole of enzyme. Data represent the average of 3 experiments (±s.d.). […] Following precipitation of the beads and re-suspension, the samples are analyzed by Western blotting with anti-V5 antibody. […] Data represent the average of 3 experiments (±s.d.). […] Data represent the average of 3 experiments (±s.d.). […] Data represent the average of 3 experiments (±s.d.). FIG. 3E NIH 3T3 cells transiently expressing Dbl are assayed for focus formation in the presence of 10 μM 968 alone or together with […] dimethyl α-ketoglutarate. […] 100%=680 nM glutamine hydrolyzed per minute per 10^5 cells. Data are the average of 3 experiments (=s.d.). […] 100%=750 nM glutamine hydrolyzed per minute per 10^5 cells. Data represent the average of 3 experiments (±s.d.).\nThe activity of the E. coli-expressed recombinant mouse ortholog of human GAC are assayed in the presence of 0 (●), 10 (∇) or 20 (▪) μM 968 and inorganic phosphate in the form of dipotassium hydrogen phosphate. […] The data are plotted as GA activity as function of varying concentrations of glutamine or inorganic phosphate. The data are the average of 3 experiments and are plotted as mean±SEM.\nGlutaminase activity assays were performed on recombinant enzyme as previously described (Kenny et al., “Bacterial Expression, Purification and Characterization of Rat Kidney-Type Mitochondrial Glutaminasc,” Protein Expr. Purif 31:140-148 (2003), which is hereby incorporated by reference in its entirety). A plasmid encoding mouse GAC (residues 128-603) was cloned into the pET28a vector and the protein was expressed with an N-terminal histidine (His)-tag. The tag was cleaved using thrombin and the protein was further purified by anion-exchange and gel-filtration chromatography. […] The reaction mixture was incubated at room temperature for 45 minutes and the absorbance at 340 nm was recorded for each sample against a water blank. The absorbance of the sample with just the cocktail mixture was subtracted from each reading to calculate the activity of the enzyme."}},
  "data": [
    {"smiles": "CN(C)c1ccc(C2Nc3ccc4ccccc4c3C3=C2C(=O)CC(C)(C)C3)cc1Br", "note": "(stereo not shown) [Compound 968, 5-[3-bromo-4-(dimethylamino)phenyl]-2,2-dimethyl-2,3,5,6-tetrahydrobenzo[a]]", "values": [
      {"measurement": "colony formation in soft agar", "setting": "MDA-MB231 cells", "result": "inhibits"},
      {"measurement": "growth to high density and in low serum", "setting": "MDA-MB231 cells", "result": "inhibits"},
      {"measurement": "inhibition of enzymatic activity of purified GAC", "setting": "[1]", "result": "inhibits"},
      {"measurement": "mode of inhibition versus glutamine and inorganic phosphate", "setting": "[1]; 0, 10 or 20 μM", "result": "neither competitive versus substrate (glutamine) nor inorganic phosphate"}
    ]}
  ]
}
